Source: PMC2888031 (Bioorganic & medicinal chemistry, 2009)
“Also recorded” adds a separate entry of the source.

molecular target: Bacillus anthracis sortase enzyme (BaSrtA) (Bacillus anthracis, UniProt P0DPQ5); experiment: biochemical; settings: not given
Sequence (P0DPQ5 57-210 limits assumed): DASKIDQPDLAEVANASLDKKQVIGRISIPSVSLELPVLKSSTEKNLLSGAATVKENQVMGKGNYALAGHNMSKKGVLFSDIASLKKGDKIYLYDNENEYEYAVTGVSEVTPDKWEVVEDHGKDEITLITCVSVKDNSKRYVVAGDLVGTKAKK

Question: With `CC1=NN(c2ccccc2)C(=S)/C1=C/Nc1c(Br)cc(Br)cc1Br` [3–12] as the compound, how does the IC50 read?
Answer: 1.7 ± 0.2 µM

system: S. aureus; experiment: S. aureus culture growth in the presence of 500 µM inhibitor; type: cell-based, Staphylococcus aureus; settings: vs control cultures in 2.5% DMSO (Fig. 4)

Question: `CCSc1c(S)cnn(-c2ccccc2)c1=O` [2–9] was tested. Which “effect on S. aureus growth” value did it give?
Answer: do not significantly inhibit S. aureus growth; also recorded: not bactericidal; also recorded: do not impair microbial growth in cell culture

Question: Which “effect on S. aureus growth” value does the source give for `CCOc1cnn(-c2cccc(C)c2)c(=O)c1S` [2–20] here?
Answer: do not significantly inhibit S. aureus growth; also recorded: not bactericidal

Question: How did the “effect on S. aureus growth” value turn out when `CC1=NN(c2ccccc2)C(=S)/C1=C/Nc1ccc(/N=N/c2ccccc2)cc1` [3–9] was run?
Answer: do not substantially affect bacterial growth; also recorded: non-bacteriocidal

Question: `CC1=NN(c2ccccc2)C(=S)/C1=C/Nc1c(Br)cc(Br)cc1Br` [3–12] was tested. Which “effect on S. aureus growth” value did it give?
Answer: do not substantially affect bacterial growth; also recorded: no detrimental effect to bacterial viability; also recorded: non-bacteriocidal; also recorded: do not impair microbial growth in cell culture

Question: For `CC1=NN(c2ccccc2)C(=S)/C1=C/Nc1ccccn1` [3–17], which “effect on S. aureus growth” value is on record?
Answer: do not substantially affect bacterial growth

Question: Which “effect on S. aureus growth” value does the source give for `Cc1ccc(N2C(=O)/C(=C/c3cc([N+](=O)[O-])cc(Br)c3O)SC2=S)c(C)c1` [Compound 1] here?
Answer: toxic

Question: How did the “effect on S. aureus growth” value turn out when `COc1c(S)cnn(-c2cccc(Cl)c2)c1=O` [Compound 2] was run?
Answer: only modestly perturb growth

Question: For `CC1=NN(c2ccccc2)C(=S)/C1=C/Nc1ccc(Br)cc1` [Compound 3-1], which “effect on S. aureus growth” value is on record?
Answer: do not substantially affect bacterial growth

Question: Which “effect on S. aureus growth” value does the source give for `CC1=NN(c2ccccc2)C(=S)/C1=C/Nc1ccc([N+](=O)[O-])cc1` [Compound 3] here?
Answer: only modestly perturb growth
